# Assays:
# HCV = experiment: Phase 1b clinical trial (MAD study), plasma HCV RNA; format: in vivo, human; settings: for MEAN Δ change from baseline (log HCV RNA level): on-therapy analysis
# Source text: A 14 day randomized, double-blind, placebo-controlled, sequential-group study of multiple ascending doses (MAD) included subjects with chronic HCV infection who were naïve to treatment. Subjects were enrolled in sequential, ascending dose cohorts with a target of 16 subjects (12 subjects receiving the BZF and 4 receiving placebo in each cohort). The first cohorts assessed the effect of the BZF as monotherapy compared to placebo. Subsequent cohorts were comprised of subjects who received pegylated interferon alfa-2b (PEG-Intron; 1.5 μg/kg/dose) administered subcutaneously on days −1 and 7 in combination with either placebo or the BZF administered orally (100 mg, 250 mg, 500 mg or 1000 mg every 12 hours, in combinations of 25 mg or 200 mg capsules) from days 1 to 14. […] The mean viral load for each treatment group at study entry was >6.0 log 10 UI/ml HCV RNA.
# [1] = target: T1, HCV NS5B protein (genotype 1b, BB7) (Hepatitis C virus genotype 1b, UniProt Q9WMX2); experiment: Inhibition of viral RNA-dependent RNA polymerase (RdRp); format: biochemical; settings: purified HCV NS5B, C-terminal 21 amino acids removed
# T1 construct: of which the carboxyl terminal 21 amino acids were removed to enhance its solubility; made in house; host or cells: E. coli
# Source text: The HCV NS5B-directed RdRp activity was established and characterized in a standard in vitro biochemical assay using a purified HCV NS5B protein derived from the consensus sequence of a patient infected with HCV genotype 1b virus (BB7). (See Blight K J et al., Science. 2000, 290:1972-4). The NS5B consensus sequence was cloned and expressed in E. coli as a histidine tagged ([…]) fusion protein, of which the carboxyl terminal 21 amino acids were removed to enhance its solubility.
# In addition to evaluating its activity in the replicon assay, as described above, the BZF of Example 1 was also evaluated for antiviral activity using this assay.
# [2] = Day 14, BZF 100 mg, all genotypes
# [3] = Day 14, BZF 250 mg, all genotypes
# [4] = Day 14, BZF 500 mg, all genotypes
# [5] = Day 14, BZF 1000 mg, all genotypes
smiles,measurement,setting,value
"CNC(=O)c1c(-c2ccc(F)cc2)oc2cc(N(CCO)S(C)(=O)=O)c(C3CC3)cc12 [BZF, 5-cyclopropyl-2-(4-fluoro-phenyl)-6-[(2-hydroxy-ethyl)-methanesulfonyl-amino]-benzofuran-3-carboxylic acid methylamide]",MEAN Δ change from baseline (log HCV RNA level),"HCV; Day 4, BZF 500 mg every 12 hours, all genotypes",−1.43 log
same,MEAN Δ change from baseline (log HCV RNA level),"HCV; Day 7, BZF 500 mg every 12 hours, all genotypes",−1.30 log
same,"% Subjects BQL (below quantification limits, <50 IU/mL)",HCV; [2],0%
same,% Subjects with ≧1.5 log ↓ in log10 HCV RNA,HCV; [2],2 (17%)
same,% Subjects with ≧2 log ↓ in log10 HCV RNA,HCV; [2],0%
same,% Subjects with ≧3 log ↓ in log10 HCV RNA,HCV; [2],0%
same,"% Subjects BQL (below quantification limits, <50 IU/mL)",HCV; [3],0%
same,% Subjects with ≧1.5 log ↓ in log10 HCV RNA,HCV; [3],0%
same,% Subjects with ≧2 log ↓ in log10 HCV RNA,HCV; [3],0%
same,% Subjects with ≧3 log ↓ in log10 HCV RNA,HCV; [3],0%
same,MEAN Δ change from baseline (log HCV RNA level),"HCV; Day 14, BZF 500 mg every 12 hours, all genotypes",−0.64 log
same,"% Subjects BQL (below quantification limits, <50 IU/mL)",HCV; [4],0%
same,% Subjects with ≧1.5 log ↓ in log10 HCV RNA,HCV; [4],1 (8%)
same,% Subjects with ≧2 log ↓ in log10 HCV RNA,HCV; [4],1 (8%)
same,% Subjects with ≧3 log ↓ in log10 HCV RNA,HCV; [4],0%
same,"% Subjects BQL (below quantification limits, <50 IU/mL)","HCV; Day 14, BZF 500 mg, genotype 1",0%
same,% Subjects with ≧1.5 log ↓ in log10 HCV RNA,"HCV; Day 14, BZF 500 mg, genotype 1",1 (13%)
same,% Subjects with ≧2 log ↓ in log10 HCV RNA,"HCV; Day 14, BZF 500 mg, genotype 1",1 (13%)
same,% Subjects with ≧3 log ↓ in log10 HCV RNA,"HCV; Day 14, BZF 500 mg, genotype 1",0%
same,"% Subjects BQL (below quantification limits, <50 IU/mL)",HCV; [5],0%
same,% Subjects with ≧1.5 log ↓ in log10 HCV RNA,HCV; [5],2 (17%)
same,% Subjects with ≧2 log ↓ in log10 HCV RNA,HCV; [5],2 (17%)
same,% Subjects with ≧3 log ↓ in log10 HCV RNA,HCV; [5],1 (8%)
same,IC50,[1],< 500 nM

# Source: US20080075695A1, “COMBINATION THERAPY METHOD FOR TREATING HEPATITIS C VIRUS INFECTION AND PHARMACEUTICAL COMPOSITIONS FOR USE THEREIN” (priority 2006, published 2008)
